Results published in patent publication EP4458352A1, “EICOSAPENTAENOIC ACID ESTER DERIVATIVES FOR THE TREATMENT OF OBESITY” (Technische Universität Dresden, priority 2023, dated 2024).

Legend:
[1] = system: primary adrenocortical cells; test: Flow cytometry with Mitotracker Green and TMRE in primary adrenocortical cells treated with SC-26196; type: cell-based, WT C57BL/6J mice; details: SC-26196 10 µM, 18 h vs DMSO; n=6
Experimental: Adrenocortical cells (CD31-CD45-) were treated for 18 h with DMSO or SC-26196 (10 µM) and were then incubated with Mitotracker Green (0.25 µM; Invitrogen), TMRE (2.5 µM; Thermofisher), for 30 min at 37°C in FACS buffer (0.5 % BSA, 2 mM EDTA in PBS) in dark. Live cells were selected by DAPI staining. FACS was performed using LSR Fortessa X20 flow cytometer and data were analyzed with the FlowJo software.

[2] = system: primary adrenocortical cells; test: Seahorse OCR measurement in primary adrenocortical cells treated with SC-26196; type: cell-based, WT C57BL/6J mice; details: SC-26196 10 µM, 18 h vs DMSO; n=4
Experimental: Primary adrenocortical cells were plated in 0.2 % gelatin-precoated XF96 cell culture microplate (Agilent) (8*10^4 cells/well) and treated for 18 h with DMSO or SC-26196 (10 µM). OCR was measured with a Seahorse XF96 Analyzer (Agilent Technologies). The experimental medium used was XF Base Medium supplemented with glucose (10 mM), pyruvate (1 mM) and glutamine (2 mM).

[3] = system: StAR, Cyp11a1, 3β-Hsd2, Cyp11b1, Cyp11b2; test: mRNA expression of StAR and steroidogenic enzymes upon FADS2 inhibition (qPCR); type: cell-based; details: upon FADS2 inhibition (SC-26196)
Experimental: Adrenal glands or adrenal corteces were isolated from WT C57BL/6J mice, cleaned from the surrounding fat tissue and incubated in collagenase buffer (1.6 mg/ml collagenase type I, 1.6 mg/ml BSA) for 45 min at 37 °C, while shaking at 900 rpm. Dissociated cells were passed through 22 G needle and a 100 µm cell strainer and centrifuged at 300 × g for 5 min at 4 °C. Cells of a pool from two adrenals of each mouse were distributed in four 0.2 % gelatin-precoated wells of a 96-well plate in DMEM/F12 supplemented with 1 % FBS, 50 U/mL penicillin and 50 µg/mL streptomycin. Two hours after seeding 10 µM SC-26196 (Tocris, Wiesbaden-Nordenstadt, Germany) or same amount of carrier (DMSO) were added without changing the medium. In some experiments medium was additionally supplemented with 150 µM ARA (Sigma Aldrich, Germany) or same amount of solvent (endotoxin-free water). […]
RNA was isolated from frozen tissues with the TRI Reagent (MRC, Cincinnati, USA) after mechanical tissue disruption or from cells with the RNeasy Mini Kit (Qiagen, Düsseldorf, Germany) according to manufacturer's instructions. […] Reverse transcription was performed with the iScript cDNA Synthesis kit (Biorad, Munich, Germany) and cDNA was analyzed by qPCR using the SsoFast Eva Green Supermix (Bio-Rad, Munich, Germany), a CFX384 real-time System C1000 Thermal Cycler (Bio-Rad) and the Bio-Rad CFX Manager 3.1 software.

Compound: N#CC(CCCN1CCN(/N=C/c2cccnc2)CC1)(c1ccccc1)c1ccccc1 [SC-26196]
- mitochondrial load (Mitogreen staining) [1]: decreased
- mitochondrial membrane potential (TMRE staining) [1]: decreased
- oxygen consumption rate (OCR) [2]: decreased
- mRNA expression of StAR or steroidogenic enzymes (Cyp11a1, 3β-Hsd2, Cyp11b1, Cyp11b2) [3]: increased
